This experiment concerns the target wild-type human cardiac sodium channel, hNav1.5 (Homo sapiens, UniProt Q14524). In words: Late INa screening assay (QPatch whole cell patch clamp, HEK293). Type of experiment: cell-based. The note with it: HEK293, percent block of late INa; compound at 1 μM; 10 μM Tefluthrin; read-out: Late INa 1 μM. The protocol:
The late sodium current (Late INa) and peak sodium current (Peak INa) assays are performed on an automated electrophysiology platform, QPatch 16× (Sophion Bioscience, Copenhagen, Denmark), which uses the whole cell patch clamp technique to measure currents through the cell membrane of up to 16 cells at a time. The assay uses an HEK293 (human embryonic kidney) cell line heterologously expressing the wild-type human cardiac sodium channel, hNav1.5, purchased from Millipore (Billerica, Mass.). No beta subunits were coexpressed with the Na channel alpha subunit. Cells are maintained with standard tissue culture procedures and stable channel expression is maintained with 400 μg/mL Geneticin in the culture medium. Cells isolated for use on QPatch are incubated for 5 minutes in Detachin 1×(Genlantis, San Diego, USA) at 37° C. to ensure that 80-90% of the cells are single and not part of a cell cluster. Experiments are carried out at 23-25° C.
For both the Late INa and Peak INa assays, series resistance compensation is set to 100% and series resistance and whole-cell compensation are performed automatically. Currents are digitized at 25 kHz and low-pass filtered at 12 kHz and 10 kHz for the late and peak INa assays, respectively. Currents through open sodium channels are automatically recorded and stored in the Sophion Bioscience Oracle database (Sophion Bioscience, Copenhagen, Denmark). Analysis is performed using QPatch Assay and database software and data are compiled in Excel.
Compound stocks are routinely made by the Gilead Sample Bank in plastic vials to 10 mM in dimethyl sulfoxide (DMSO). In some cases, when compounds are not soluble in DMSO, they are made in 100% ethanol. Stocks are sonicated as necessary. The extracellular solution for screening Late INa is composed of: 140 mM NaCl, 4 mM KCl, 1.8 mM CaCl2, 0.75 mM MgCl2 and 5 mM HEPES with pH adjusted to 7.4 using NaOH. The intracellular solution used to perfuse the inside of the cells for both the Late INa and Peak INa assays contains: 120 mM CsF, 20 mM CsCl, 5 mM EGTA, 5 mM HEPES and pH adjusted to 7.4 with CsOH. Compounds are diluted in extracellular solution to 1 μM in glass vials and then transferred to glass well plates before robotic addition to the cells. The 0 mM Na extracellular solution (0Na-ECF) used at the end of each experiment for the Late INa and Peak INa assays to measure baseline current contains: 140 mM N-methyl-D-glucamine; 4 mM KCl; 1.8 mM CaCl2; 0.75 mM MgCl2; 5 mM HEPES and pH was adjusted to 7.4 with HCl.
For the Late INa assay, sodium channels are activated every 10 seconds (0.1 Hz) by depolarizing the cell membrane to −20 mV for 250 milliseconds (ms) from a holding potential of −120 mV. In response to a −20 mV voltage step, typical hNav1.5 sodium currents activate rapidly to a peak negative current and then inactivate nearly completely within 3-4 ms.
Compounds were tested to determine their activity in blocking the late sodium current. Late INa was generated by adding 10 μM Tefluthrin (pyrethroid) to the extracellular solution while recording Na currents. […] ATX-II and tefluthrin occupy distinct, non-overlapping binding sites and modify Na^+ channel function differently to increase late INa. […] After establishing the whole cell recording configuration, late INa activator is added to each well 4 times over a 16-17 minute period so that the late component of the Na current reaches a stable value.
Results are reported as percent block of late INa.

wild-type human cardiac sodium channel, hNav1.5, sequence (Q14524 whole entry): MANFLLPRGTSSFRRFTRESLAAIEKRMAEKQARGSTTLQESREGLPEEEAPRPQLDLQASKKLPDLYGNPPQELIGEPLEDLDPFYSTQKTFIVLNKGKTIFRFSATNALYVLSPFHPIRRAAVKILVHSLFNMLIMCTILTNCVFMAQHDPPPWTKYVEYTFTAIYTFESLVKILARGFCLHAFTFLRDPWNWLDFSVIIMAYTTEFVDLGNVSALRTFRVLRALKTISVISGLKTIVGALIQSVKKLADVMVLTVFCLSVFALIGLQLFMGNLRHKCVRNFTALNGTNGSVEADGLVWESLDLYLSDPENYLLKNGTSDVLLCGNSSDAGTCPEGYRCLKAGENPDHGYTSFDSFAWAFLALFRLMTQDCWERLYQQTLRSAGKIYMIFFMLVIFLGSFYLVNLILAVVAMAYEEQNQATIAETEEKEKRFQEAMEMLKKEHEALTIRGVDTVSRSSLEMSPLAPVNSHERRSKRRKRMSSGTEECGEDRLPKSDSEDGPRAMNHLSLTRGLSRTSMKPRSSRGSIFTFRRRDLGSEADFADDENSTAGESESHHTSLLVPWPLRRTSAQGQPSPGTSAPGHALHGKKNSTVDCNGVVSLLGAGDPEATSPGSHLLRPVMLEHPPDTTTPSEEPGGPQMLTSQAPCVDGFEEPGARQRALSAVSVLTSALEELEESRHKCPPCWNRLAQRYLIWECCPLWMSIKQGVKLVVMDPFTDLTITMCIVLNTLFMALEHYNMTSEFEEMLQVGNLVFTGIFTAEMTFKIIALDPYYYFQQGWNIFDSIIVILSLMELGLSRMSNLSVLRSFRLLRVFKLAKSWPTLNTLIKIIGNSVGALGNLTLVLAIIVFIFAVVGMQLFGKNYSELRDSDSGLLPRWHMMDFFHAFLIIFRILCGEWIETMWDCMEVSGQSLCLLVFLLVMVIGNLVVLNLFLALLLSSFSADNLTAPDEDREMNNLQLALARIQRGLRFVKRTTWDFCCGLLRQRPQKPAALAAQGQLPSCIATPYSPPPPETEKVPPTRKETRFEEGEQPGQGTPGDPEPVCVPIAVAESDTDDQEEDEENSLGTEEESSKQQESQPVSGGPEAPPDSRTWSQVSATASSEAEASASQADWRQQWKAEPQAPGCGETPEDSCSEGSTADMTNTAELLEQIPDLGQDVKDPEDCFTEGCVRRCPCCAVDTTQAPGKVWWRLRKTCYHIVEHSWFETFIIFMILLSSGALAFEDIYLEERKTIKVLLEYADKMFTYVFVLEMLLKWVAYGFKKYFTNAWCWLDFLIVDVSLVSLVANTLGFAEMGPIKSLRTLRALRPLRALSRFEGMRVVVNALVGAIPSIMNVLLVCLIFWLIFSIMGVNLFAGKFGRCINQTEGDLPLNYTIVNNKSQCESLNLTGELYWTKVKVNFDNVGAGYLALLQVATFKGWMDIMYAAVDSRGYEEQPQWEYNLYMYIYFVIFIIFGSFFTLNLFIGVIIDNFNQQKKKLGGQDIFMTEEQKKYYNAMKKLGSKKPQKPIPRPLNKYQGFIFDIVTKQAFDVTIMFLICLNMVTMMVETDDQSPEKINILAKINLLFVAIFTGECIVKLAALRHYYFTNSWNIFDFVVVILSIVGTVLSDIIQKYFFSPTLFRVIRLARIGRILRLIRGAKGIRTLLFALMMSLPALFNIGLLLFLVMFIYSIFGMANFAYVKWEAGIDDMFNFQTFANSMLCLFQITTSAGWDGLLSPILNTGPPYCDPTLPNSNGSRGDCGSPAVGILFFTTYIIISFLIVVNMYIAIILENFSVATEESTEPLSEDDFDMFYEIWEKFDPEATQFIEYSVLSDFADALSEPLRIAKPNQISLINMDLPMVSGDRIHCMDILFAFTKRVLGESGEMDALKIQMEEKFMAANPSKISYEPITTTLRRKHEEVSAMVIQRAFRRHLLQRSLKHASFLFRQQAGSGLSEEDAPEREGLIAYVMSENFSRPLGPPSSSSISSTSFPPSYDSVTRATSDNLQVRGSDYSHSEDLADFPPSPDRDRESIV

For `C[C@@H]1COc2ccc(-c3ccc(C(F)(F)F)cc3)cc2C(=O)N1` [II-19, (R)-3-methyl-7-(4-(trifluoromethyl)phenyl)-3,4-dihydrobenzo[f][1,4]oxazepin-5(2H)-one], the inhibition at 1 µM stood at 21%.
Turning to `N[C@@H]1C[C@H]2COc3ccc(-c4ccc(C(F)(F)F)cc4)cc3C(=O)N2C1` [II-21, (2R,11aS)-2-amino-7-(4-(trifluoromethyl)phenyl)-2,3,11,11a-tetrahydrobenzo[f]pyrrolo[2,1-c][1,4]oxazepin-5(1H)-one], the inhibition at 1 µM was 18%.
Next, `CCN1CCN2C(=O)c3cc(-c4ccc(C(F)(F)F)cc4)ccc3OC[C@H]2C1` [II-23, (R)-2-ethyl-8-(4-(trifluoromethyl)phenyl)-3,4,12,12a-tetrahydro-1H-benzo[f]pyrazino[2,1-c][1,4]oxazepin-6(2H)-one]: 25%; `O=C1c2cc(-c3ccc(C(F)(F)F)cc3)ccc2OC[C@@H]2CN(CC(F)F)CCN12` [II-24, (S)-2-(2,2-difluoroethyl)-8-(4-(trifluoromethyl)phenyl)-3,4,12,12a-tetrahydro-1H-benzo[f]pyrazino[2,1-c][1,4]oxazepin-6(2H)-one]: 23%.
Then `CCN1CCN2C(=O)c3cc(-c4ccc(C(F)(F)F)cc4)ccc3OC[C@@H]2C1` [II-25, (S)-2-ethyl-8-(4-(trifluoromethyl)phenyl)-3,4,12,12a-tetrahydro-1H-benzo[f]pyrazino[2,1-c][1,4]oxazepin-6(2H)-one], with 25%.
Then `CC1(C)COC(C)(CCN2CCOc3ccc(-c4ccc(OC(F)(F)F)cc4)cc3C2=O)OC1` [II-35, 7-(4-(trifluoromethoxy)phenyl)-4-(2-(2,5,5-trimethyl-1,3-dioxan-2-yl)ethyl)-3,4-dihydrobenzo[f][1,4]oxazepin-5(2H)-one], with 25%; and `CC(C)(C)OC(=O)N[C@@H]1C[C@@H]2COc3ccc(-c4ccc(C(F)(F)F)cc4)cc3C(=O)N2C1` [II-39, tert-butyl (2R,11aR)-5-oxo-7-(4-(trifluoromethyl)phenyl)-1,2,3,5,11,11a-hexahydrobenzo[f]pyrrolo[2,1-c][1,4]oxazepin-2-ylcarbamate], with 16%.
As to `O=C1c2cc(-c3ccc(OC(F)(F)F)cc3)ccc2OCCN1Cc1cc(-c2ccccn2)on1` [II-41, 4-((5-(pyridin-2-yl)isoxazol-3-yl)methyl)-7-(4-(trifluoromethoxy)phenyl)-3,4-dihydrobenzo[f][1,4]oxazepin-5(2H)-one], the inhibition at 1 µM worked out at 17%.
Next, `CCOC(=O)c1cccc(CN2CCOc3ccc(-c4ccc(OC(F)(F)F)cc4)cc3C2=O)c1` [II-43, ethyl 3-((5-oxo-7-(4-(trifluoromethoxy)phenyl)-2,3-dihydrobenzo[f][1,4]oxazepin-4(5H)-yl)methyl)benzoate]: 23%.
Next, `O=C1c2cc(-c3ccc(OC(F)(F)F)cc3)ccc2OCCN1CCc1ncccn1` [II-44, 4-(2-(pyrimidin-2-yl)ethyl)-7-(4-(trifluoromethoxy)phenyl)-3,4-dihydrobenzo[f][1,4]oxazepin-5(2H)-one]: 39%; `O=C1c2cc(-c3ccc(OC(F)(F)F)cc3)ccc2OCCN1Cc1ccc(F)c(F)c1` [II-45, 4-(3,4-difluorobenzyl)-7-(4-(trifluoromethoxy)phenyl)-3,4-dihydrobenzo[f][1,4]oxazepin-5(2H)-one]: 27%; `N[C@H]1C[C@H]2COc3ccc(-c4ccc(C(F)(F)F)cc4)cc3C(=O)N2C1` [II-51, (2S,11aS)-2-amino-7-(4-(trifluoromethyl)phenyl)-2,3,11,11a-tetrahydrobenzo[f]pyrrolo[2,1-c][1,4]oxazepin-5(1H)-one]: 20%.
Take `O=C1c2cc(-c3ccc(C(F)(F)F)cc3)ccc2OC[C@H]2CCCN12` [II-59, (R)-7-(4-(trifluoromethyl)phenyl)-2,3,11,11a-tetrahydrobenzo[f]pyrrolo[2,1-c][1,4]oxazepin-5(1H)-one]: the inhibition at 1 µM turned out to be 15%.
